# Test results as given in publication PMC8151276, “An Integrated Approach toward NanoBRET Tracers for Analysis of GPCR Ligand Engagement” (Molecules, 2021).
# Key:
# Assay type in all cases: binding
# P2RY2 = molecular target: T1, P2RY2 (Homo sapiens, UniProt P41231); experiment: NanoBRET screen HiBiT-P2RY2 in HEK293
# T1 construct: purchased Promega (in-house HiBiT-GPCR construct library, NanoBRET)
# Description: (§1) Each tracer candidate was screened across the entire library of HiBiT-GPCR constructs using NanoBRET as the detection modality. As depicted in Figure 4A, the specificity of interactions was evaluated through decrease in BRET due to competitive displacement of a bound tracer by excess parental compound. Each tracer was analyzed for binding to each HiBiT-GPCR fusion in the absence and in the presence of competing parental compound. Briefly, HEK293 cells were transfected with HiBiT-GPCR constructs diluted into promoterless DNA to reduce expression and maximize translocation to the cell surface. Each tracer candidate was then screened at concentrations of 1 μM and 0.1 μM across cells expressing these fusions. Cells were treated for 1.5 h with tracer either alone or in the presence of 20 μM competing parental compound (i.e., control). BRET was measured upon addition of purified LgBiT and subsequent complementation with HiBiT genetically fused to a GPCR. The specificity of interactions was assessed through a decrease in BRET signal due to competitive displacement of the bound tracer. To further gauge the robustness of these interactions, the fold response over the control (i.e., BRETtracer/BRETcontrol) was calculated. We chose a 1.5-fold response, which translates to ≥7-fold signal over noise as the minimal threshold required to score an interaction as positive. […]. Below we highlight the screening results obtained for our exemplary fluorescent tracers based on Clozapine, Amitriptyline and AZD1283.
# (§2) HiBiT-GPCR DNA constructs were diluted in 10 mM Tris pH 8 to a final concentration of 0.01 μg/μL, arrayed in 96-well plates and stored at −20 °C. For transfection, HEK293 cells were suspended in Opti-MEM (without phenol red) supplemented with 2% fetal bovine serum (Seradigm) and 100 units/mL penicillin–streptomycin (Gibco) at a final concentration of 220,000 cells/mL and dispensed into white 96-well plates at 90 μL/well. Subsequent transfections and screens were carried using an Agilent Bravo Automated Liquid Handling Platform. First, the 96-well HiBiT DNA arrays were diluted 25-fold in Opti-MEM (without serum or phenol red) to a final concentration of 0.0004 μg/μL and 20 μL of the diluted DNAs were transferred into new 96-well plates. Next, promoterless carrier DNA (1 μg/μL) was diluted 25-fold (0.04 μg/μL) and then dispensed into the diluted arrays at 20 μL/well. Following brief mixing, Viafect transfection reagent (Promega) diluted 16-fold into Opti-MEM was dispensed into the plates at 40 μL/well. After mixing by pipetting, plates were incubated for 10 min on the pipetting station deck. The DNA-transfection reagent complexes were then added to plates containing cells. To facilitate the screen, 10 μL of DNA-transfection reagent complexes were added in duplicates to the top 4 and bottom 4 rows, resulting in two identical 48-well arrays per plate. Plates with transfected cells were incubated for 18–20 h at 37 °C/5% CO2. A screen of each tracer across the entire library using two different concentrations requires duplicate plates of transfected cells. Depending on the number of tracers being screened, transfections can be scaled up using the same ratios. The next day, for each tracer, four 20× screening solutions in tracer dilution buffer (Promega) were prepared: two duplicates at final concentration of 20 μM and two duplicates at a final concentration of 2 μM. A competing unmodified compound was added to one of each duplicate at a final concentration of 400 μM. The four resulting solutions were diluted 4-fold in Opti-MEM without serum or phenol red to generate 5× solutions (5 µM and 0.5 µM tracer +/− 100 μM competing compound). To screen the library, a BioTek MultiFlo FX liquid dispenser was used to dispense 22.5 µL of tracer solution to the top 4 rows and 22.5 µL tracer + competing compound solution to the 4 bottom rows. Plates were briefly mixed on an orbital shaker and incubated for 1.5 h at room temperature. […]
# PTGER4 = molecular target: T2, PTGER4 (Homo sapiens, UniProt P35408); experiment: NanoBRET screen HiBiT-PTGER4 in HEK293
# T2 construct: purchased Promega (in-house HiBiT-GPCR construct library, NanoBRET)
# T2 sequence (P35408 whole entry): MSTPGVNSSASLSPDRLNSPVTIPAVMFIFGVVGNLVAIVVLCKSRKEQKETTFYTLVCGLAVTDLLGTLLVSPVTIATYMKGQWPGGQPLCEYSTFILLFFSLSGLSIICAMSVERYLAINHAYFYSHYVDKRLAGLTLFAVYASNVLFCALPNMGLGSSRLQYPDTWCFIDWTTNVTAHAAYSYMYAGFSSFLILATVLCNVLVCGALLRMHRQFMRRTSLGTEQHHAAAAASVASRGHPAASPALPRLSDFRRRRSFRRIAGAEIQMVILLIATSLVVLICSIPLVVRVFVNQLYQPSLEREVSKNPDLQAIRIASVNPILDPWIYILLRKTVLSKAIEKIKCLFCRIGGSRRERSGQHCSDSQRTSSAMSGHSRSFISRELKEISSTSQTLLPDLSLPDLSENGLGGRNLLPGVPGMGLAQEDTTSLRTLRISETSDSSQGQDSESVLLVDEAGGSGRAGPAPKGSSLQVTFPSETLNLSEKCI
# Description: as §1, §2
# GCGR = molecular target: T3, GCGR (Homo sapiens, UniProt P47871); experiment: NanoBRET screen HiBiT-GCGR in HEK293
# T3 construct: purchased Promega (in-house HiBiT-GPCR construct library, NanoBRET)
# T3 sequence (P47871 26-477): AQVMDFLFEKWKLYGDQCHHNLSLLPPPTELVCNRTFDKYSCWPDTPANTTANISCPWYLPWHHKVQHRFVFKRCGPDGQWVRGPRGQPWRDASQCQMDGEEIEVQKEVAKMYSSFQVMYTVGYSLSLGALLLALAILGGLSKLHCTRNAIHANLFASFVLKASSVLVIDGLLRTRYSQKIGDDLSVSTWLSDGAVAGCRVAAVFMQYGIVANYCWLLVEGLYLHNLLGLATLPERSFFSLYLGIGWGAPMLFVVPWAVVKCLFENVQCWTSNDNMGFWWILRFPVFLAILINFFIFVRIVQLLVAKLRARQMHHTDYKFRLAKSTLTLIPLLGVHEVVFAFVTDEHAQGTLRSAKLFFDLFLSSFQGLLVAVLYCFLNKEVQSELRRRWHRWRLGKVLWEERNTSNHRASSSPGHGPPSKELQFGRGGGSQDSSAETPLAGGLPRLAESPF
# Description: as §1, §2
# PTGIR = molecular target: T4, PTGIR (Homo sapiens, UniProt P43119); experiment: NanoBRET screen HiBiT-PTGIR in HEK293
# T4 construct: purchased Promega (in-house HiBiT-GPCR construct library, NanoBRET)
# T4 sequence (P43119 whole entry): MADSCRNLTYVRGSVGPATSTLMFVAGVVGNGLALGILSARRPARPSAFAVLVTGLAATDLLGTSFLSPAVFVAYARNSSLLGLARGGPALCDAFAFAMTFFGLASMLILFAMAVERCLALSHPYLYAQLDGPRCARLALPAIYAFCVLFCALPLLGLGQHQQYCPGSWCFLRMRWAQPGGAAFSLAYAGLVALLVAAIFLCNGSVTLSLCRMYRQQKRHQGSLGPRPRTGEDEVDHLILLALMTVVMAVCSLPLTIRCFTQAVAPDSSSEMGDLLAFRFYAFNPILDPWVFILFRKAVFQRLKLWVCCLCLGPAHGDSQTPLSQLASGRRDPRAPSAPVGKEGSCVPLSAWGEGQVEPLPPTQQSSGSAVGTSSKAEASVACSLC
# Description: as §1, §2
# XCR1 = molecular target: T5, XCR1 (Homo sapiens, UniProt P46094); experiment: NanoBRET screen HiBiT-XCR1 in HEK293
# T5 construct: purchased Promega (in-house HiBiT-GPCR construct library, NanoBRET)
# T5 sequence (P46094 1-333): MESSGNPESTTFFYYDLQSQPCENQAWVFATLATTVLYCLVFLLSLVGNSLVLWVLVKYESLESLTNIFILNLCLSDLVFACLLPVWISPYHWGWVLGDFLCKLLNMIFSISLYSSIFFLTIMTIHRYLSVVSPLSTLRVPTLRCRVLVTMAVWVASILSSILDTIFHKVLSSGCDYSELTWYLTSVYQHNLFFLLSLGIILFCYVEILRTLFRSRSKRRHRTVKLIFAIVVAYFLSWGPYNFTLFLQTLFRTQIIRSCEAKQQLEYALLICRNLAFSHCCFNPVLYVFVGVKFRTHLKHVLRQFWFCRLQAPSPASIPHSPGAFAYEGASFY
# Description: as §1, §2
# T1 sequence (P41231 whole entry): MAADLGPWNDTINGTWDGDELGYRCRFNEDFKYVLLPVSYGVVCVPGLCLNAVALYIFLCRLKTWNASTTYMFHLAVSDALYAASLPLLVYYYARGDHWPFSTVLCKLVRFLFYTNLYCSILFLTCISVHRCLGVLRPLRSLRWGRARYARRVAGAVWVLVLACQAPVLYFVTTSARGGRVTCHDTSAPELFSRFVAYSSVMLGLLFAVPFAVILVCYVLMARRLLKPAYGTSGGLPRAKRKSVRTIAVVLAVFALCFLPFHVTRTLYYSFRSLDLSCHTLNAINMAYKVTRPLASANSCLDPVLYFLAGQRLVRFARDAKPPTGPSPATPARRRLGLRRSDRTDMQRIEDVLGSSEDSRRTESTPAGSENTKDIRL
SMILES,"NanoBRET Fold Response (P2RY2; P2RY2, 0.1μM tracer)","NanoBRET Fold Response (P2RY2; P2RY2, 1μM tracer)","NanoBRET Fold Response (PTGER4; PTGER4, 0.1μM tracer)","NanoBRET Fold Response (PTGER4; PTGER4, 1μM tracer)","NanoBRET Fold Response (GCGR; GCGR, 0.1μM tracer)","NanoBRET Fold Response (GCGR; GCGR, 1μM tracer)","NanoBRET Fold Response (PTGIR; PTGIR, 0.1μM tracer)","NanoBRET Fold Response (PTGIR; PTGIR, 1μM tracer)","NanoBRET Fold Response (XCR1; XCR1, 0.1μM tracer)","NanoBRET Fold Response (XCR1; XCR1, 1μM tracer)","NanoBRET Fold Response (PTGER4; PTGER4, tracer 0.1μM)","NanoBRET Fold Response (PTGER4; PTGER4, tracer 1μM)","NanoBRET Fold Response (GCGR; GCGR, tracer 0.1μM)","NanoBRET Fold Response (GCGR; GCGR, tracer 1μM)","NanoBRET Fold Response (PTGIR; PTGIR, tracer 0.1μM)","NanoBRET Fold Response (PTGIR; PTGIR, tracer 1μM)","NanoBRET Fold Response (XCR1; XCR1, tracer 0.1μM)",other results
COc1ccc2[nH]c(-c3ccc(CNC(=O)CCOCCOCCOCCOCCNC(=O)CCc4ccc5n4[B-](F)(F)[N+]4=C(c6ccc[nH]6)C=CC4=C5)cc3)c(CCNC(C)=O)c2n1 [AzomelatoninICO9-2-NB590],,,,,,,,,,,,,,,,,,NanoBRET Fold Response (P2RY2; 0.1μM tracer): 1.06; NanoBRET Fold Response (P2RY2; 1μM tracer): 1.09; NanoBRET Fold Response (PTGER4; 0.1μM tracer): 0.97; NanoBRET Fold Response (PTGER4; 1μM tracer): 0.97; NanoBRET Fold Response (GCGR; 0.1μM tracer): 0.90; NanoBRET Fold Response (GCGR; 1μM tracer): 1.05; NanoBRET Fold Response (PTGIR; 0.1μM tracer): 1.03; NanoBRET Fold Response (PTGIR; 1μM tracer): 0.98; NanoBRET Fold Response (XCR1; 0.1μM tracer): 0.42; NanoBRET Fold Response (XCR1; 1μM tracer): 0.90
O=C(CCOCCOCCOCCOCCNC(=O)CCc1ccc2n1[B-](F)(F)[N+]1=C(c3ccc[nH]3)C=CC1=C2)NCCCN1CCN(C2=Nc3cc(Cl)ccc3Nc3ccccc32)CC1 [Clozapine-a-2-NB590],1.12,0.97,1.02,1.06,0.94,1.14,1.04,0.98,1.01,0.98,,,,,,,,
CN1CCN(C2=Nc3cc(Cl)ccc3Nc3ccc(CNC(=O)CCOCCOCCOCCOCCNC(=O)CCc4ccc5n4[B-](F)(F)[N+]4=C(c6ccc[nH]6)C=CC4=C5)cc32)CC1 [Clozapine-b-2-NB590],0.96,1.00,1.03,1.03,1.02,1.04,0.98,1.00,0.94,1.18,,,,,,,,
CN1CCN(C2=Nc3cc(Cl)ccc3N(CC(=O)NCCOCCOCCOCCOCCNC(=O)CCc3ccc4n3[B-](F)(F)[N+]3=C(c5ccc[nH]5)C=CC3=C4)c3ccccc32)CC1 [Clozapine-c-2-NB590],0.99,0.84,1.00,1.05,0.99,1.02,0.96,1.09,0.99,1.03,,,,,,,,
O=C(CCOCCOCCOCCOCCNC(=O)CCc1ccc2n1[B-](F)(F)[N+]1=C(c3ccc[nH]3)C=CC1=C2)NCCCN1CCN(C2=Nc3ccccc3Oc3ccc(Cl)cc32)CC1 [Loxapine-a-2-NB590],,,,,,,,,,,0.97,1.07,1.05,1.24,0.99,1.04,0.44,"NanoBRET Fold Response (P2RY2; P2RY2, tracer 0.1μM): 0.99; NanoBRET Fold Response (P2RY2; P2RY2, tracer 1μM): 1.05; NanoBRET Fold Response (XCR1; XCR1, tracer 1μM): 0.91"
COc1ccccc1N1CCN(CCCCN2C(=O)c3ccc(CNC(=O)CCOCCOCCOCCOCCNC(=O)CCc4ccc5n4[B-](F)(F)[N+]4=C(c6ccc[nH]6)C=CC4=C5)cc3C2=O)CC1 [NAN-190-2-NB590],,,,,,,,,,,1.02,1.01,1.06,1.06,0.99,1.02,1.44,
